Measured values taken from ChEMBL document CHEMBL3526059, “Reversible inhibition of human carboxylesterases by acyl glucuronides” (Drug Metab Dispos, 2013).

How the values were obtained:
[1] = Half life in phosphate buffer at pH 7.4 by HPLC analysis; type: physicochemical
[2] = Half life in phosphate buffer at 10 uM at pH 7.4 by LC/TOF-MS analysis; type: physicochemical
Liver carboxylesterase 1 [3] = target: T1, Liver carboxylesterase 1 (Homo sapiens, UniProt P23141); assay: Reversible inhibition of human CES1 assessed as hydrolysis of 4NPA to 4NP
T1 sequence (P23141 whole entry): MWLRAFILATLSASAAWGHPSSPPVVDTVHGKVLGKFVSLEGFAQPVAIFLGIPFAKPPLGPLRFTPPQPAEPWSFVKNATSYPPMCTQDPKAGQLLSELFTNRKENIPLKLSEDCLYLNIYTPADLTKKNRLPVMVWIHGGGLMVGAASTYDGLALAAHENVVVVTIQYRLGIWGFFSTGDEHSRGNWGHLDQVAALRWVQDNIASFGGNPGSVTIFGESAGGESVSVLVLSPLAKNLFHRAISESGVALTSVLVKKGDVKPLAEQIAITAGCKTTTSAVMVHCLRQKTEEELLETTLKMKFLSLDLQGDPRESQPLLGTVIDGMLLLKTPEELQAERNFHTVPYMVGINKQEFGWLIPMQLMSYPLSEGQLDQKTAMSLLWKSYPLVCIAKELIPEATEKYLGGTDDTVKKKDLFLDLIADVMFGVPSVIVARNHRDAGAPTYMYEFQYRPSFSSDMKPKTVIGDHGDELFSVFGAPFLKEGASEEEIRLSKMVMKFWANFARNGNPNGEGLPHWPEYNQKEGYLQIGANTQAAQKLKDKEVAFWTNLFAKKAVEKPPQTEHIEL

Cocaine esterase [4] = target: T2, Cocaine esterase (Homo sapiens, UniProt O00748); assay: Inhibition of human CES2 assessed as hydrolysis of 4NPA to 4NP at 1 mM by spectrophotometric analysis; details: 1000 µM
T2 sequence (O00748 whole entry): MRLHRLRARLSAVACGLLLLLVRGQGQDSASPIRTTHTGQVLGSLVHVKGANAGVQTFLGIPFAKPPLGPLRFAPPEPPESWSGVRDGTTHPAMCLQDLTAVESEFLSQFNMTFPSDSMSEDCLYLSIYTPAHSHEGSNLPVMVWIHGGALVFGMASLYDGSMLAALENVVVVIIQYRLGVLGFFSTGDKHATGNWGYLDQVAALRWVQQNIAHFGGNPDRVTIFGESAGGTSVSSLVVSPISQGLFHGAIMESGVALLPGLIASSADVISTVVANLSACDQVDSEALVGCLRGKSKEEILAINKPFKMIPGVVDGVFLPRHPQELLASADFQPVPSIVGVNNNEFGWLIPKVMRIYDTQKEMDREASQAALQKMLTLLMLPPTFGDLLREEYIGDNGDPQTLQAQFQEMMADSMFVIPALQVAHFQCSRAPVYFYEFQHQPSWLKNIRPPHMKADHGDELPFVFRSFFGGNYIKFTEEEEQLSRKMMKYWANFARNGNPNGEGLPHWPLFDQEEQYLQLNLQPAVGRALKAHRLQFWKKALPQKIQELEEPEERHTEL

Liver carboxylesterase 1 [5] = target: T1, Liver carboxylesterase 1; assay: Inhibition of human CES1 assessed as hydrolysis of 4NPA to 4NP at 1 mM by spectrophotometric analysis; details: 1000 µM
[6] = Half life of the compound; type: physicochemical
Liver carboxylesterase 1 [7] = target: T1, Liver carboxylesterase 1; assay: Activity of human CES1 assessed as loss of 1-O-acyl glucuronide at 100 uM measured at 60 mins by LC/TOF-MS analysis relative to control; type: ADME; details: 1 h
Liver carboxylesterase 1 [8] = target: T1, Liver carboxylesterase 1; assay: Time-dependent inhibition of human CES1 assessed as hydrolysis of 4NPA to 4NP preincubated for 60 mins followed by 4NPA addition
Liver carboxylesterase 1 [9] = target: T1, Liver carboxylesterase 1; assay: Activity of human CES1 assessed as loss of 1-O-acyl glucuronide at 100 uM measured at 30 mins by LC/TOF-MS analysis relative to control; type: ADME; details: 0.5 h
Liver carboxylesterase 1 [10] = target: T1, Liver carboxylesterase 1; assay: Time-dependent inhibition of human CES1 assessed as hydrolysis of 4NPA to 4NP preincubated for 10 mins followed by 4NPA addition
Liver carboxylesterase 1 [11] = target: T1, Liver carboxylesterase 1; assay: Time-dependent inhibition of human CES1 assessed as hydrolysis of 4NPA to 4NP preincubated for 30 mins followed by 4NPA addition
Liver carboxylesterase 1 [12] = target: T1, Liver carboxylesterase 1; assay: Activity of human CES1 assessed as loss of 1-O-acyl glucuronide at 100 uM measured at 10 mins by LC/TOF-MS analysis relative to control; type: ADME
[13] = Half life in buffer at pH 7.4 by 1H NMR spectroscopic analysis in presence of human urine; type: physicochemical; details: buffer with human urine
Cocaine esterase [14] = target: T2, Cocaine esterase; assay: Inhibition of human CES2

half-life at 10 µM [2] [h] | Ki (Liver carboxylesterase 1 [3]) [µM] | inhibition (INH) (Cocaine esterase [4]) | SMILES | further results
15.2 | – | Not Active | CCCC(CCC)C(=O)O[C@@H]1O[C@H](C(=O)O)[C@@H](O)[C@H](O)[C@H]1O | inhibition (INH) (Liver carboxylesterase 1 [5]): Not Active; half-life [6]: 60 h
3.67 | 355 | Not Active | CC(C)Cc1ccc(C(C)C(=O)O[C@@H]2O[C@H](C(=O)O)[C@@H](O)[C@H](O)[C@H]2O)cc1 (mixture of isomers) | half-life [13]: 3.5 h

Further lines, the compound ahead of its results:

SMILES | half-life at 10 µM [2] [h] | Ki (Liver carboxylesterase 1 [3]) [µM] | inhibition (INH) (Cocaine esterase [4]) | further results
CC(C)Cc1ccc([C@@H](C)C(=O)O[C@@H]2O[C@H](C(=O)O)[C@@H](O)[C@H](O)[C@H]2O)cc1 | – | – | – | half-life [1]: 1.8 h
CC(C)Cc1ccc([C@H](C)C(=O)O[C@@H]2O[C@H](C(=O)O)[C@@H](O)[C@H](O)[C@H]2O)cc1 | – | – | – | half-life [1]: 3.3 h
O=C(O)[C@H]1O[C@@H](OC(=O)[C@H](c2ccccc2Cl)N2CCc3sccc3C2)[C@H](O)[C@@H](O)[C@@H]1O | 5.02 | 24.8 | Not Active | –
COc1ccc2cc([C@@H](C)C(=O)O[C@@H]3O[C@H](C(=O)O)[C@@H](O)[C@H](O)[C@H]3O)ccc2c1 | 0.996 | 468 | Not Active | –
COc1ccc2cc([C@H](C)C(=O)O[C@@H]3O[C@H](C(=O)O)[C@@H](O)[C@H](O)[C@H]3O)ccc2c1 | 1.77 | 707 | Not Active | –
O=C(Cc1ccccc1Nc1c(Cl)cccc1Cl)O[C@@H]1O[C@H](C(=O)O)[C@@H](O)[C@H](O)[C@H]1O | 0.537 | 4.32 | Not Active | Activity (Liver carboxylesterase 1 [7]): 75%; IC50 (Liver carboxylesterase 1 [8]): 2.27 µM; Activity (Liver carboxylesterase 1 [9]): 50%; IC50 (Liver carboxylesterase 1 [10]): 2.51 µM; IC50 (Liver carboxylesterase 1 [11]): 1.96 µM; Activity (Liver carboxylesterase 1 [12]): 20%
O=C(O[C@@H]1O[C@H](C(=O)O)[C@@H](O)[C@H](O)[C@H]1O)c1cn(Cc2c(F)cccc2F)nn1 | 0.252 | – | Not Active | inhibition (INH) (Liver carboxylesterase 1 [5]): Not Active
CCCC(CCC)C(=O)O [VALPROIC ACID] | – | – | – | Ki (Cocaine esterase [14]): 7900 µM
